Holding throughout (format): in vivo
In test [1] the test system is potato leafhopper (Empoasca fabae (Harris)). Kind of test: Test D: control of potato leafhopper through contact and/or systemic means. The following applies: 144 h. As to the method: (§1) Formulation and Spray Methodology for Tests A-H
(§2) Test compounds were formulated using a solution containing 10% acetone, 90% water and 300 ppm Activator 90® non-ionic surfactant (Loveland Products, Loveland, Colo., USA). The formulated compounds were applied in 1 mL of liquid through an atomizer nozzle positioned 1.27 cm (0.5 inches) above the top of each test unit. Test compounds were sprayed at the rates indicated, and each test was replicated three times.
[…] White sand was added to the top of the soil, and one of the primary leaves was excised prior to application of the test compound.
Test compounds were formulated and sprayed at 250, 50 and 10 ppm. After spraying of the formulated test compound, the test units were allowed to dry for 1 hour before they were post-infested with 5 potato leafhoppers (18-to-21-day-old adults). A black, screened cap was placed on the top of the test unit, and the test units were held for 6 days in a growth chamber at 20° C. and 70% relative humidity. Each test unit was then visually assessed for insect mortality.

Test [2] concerns cotton melon aphid (Aphis gossypii (Glover)). Kind of test: Test F: control of cotton melon aphid through contact and/or systemic means. The note with it: 144 h. As to the method:
as §1, §2
[…] This was pre-infested with 30-40 insects on a piece of leaf according to the cut-leaf method, and the soil of the test unit was covered with a layer of sand.
Test compounds were formulated and sprayed at 250, 50 and 10 ppm. After spraying, the test units were maintained in a growth chamber for 6 days at 19° C. and 70% relative humidity. Each test unit was then visually assessed for insect mortality.

Test [3] concerns sweetpotato whitefly (Bemisia tabaci (Gennadius)). The test can be described thus: Test G: control of sweetpotato whitefly through contact and/or systemic means. The note with it: 312 h. How it is done: as §1, §2
For evaluating control of the sweetpotato whitefly (Bemisia tabaci (Gennadius)) through contact and/or systemic means, the test unit consisted of a small open container with a 12-14-day-old cotton plant inside. Prior to the spray application, both cotyledons were removed from the plant, leaving one true leaf for the assay. Adult whiteflies were allowed to lay eggs on the plant and then were removed from the test unit. Cotton plants infested with at least 15 eggs were submitted to the test for spraying.
Test compounds were formulated and sprayed at 250, 50 and 10 ppm. After spraying, the test units were allowed to dry for 1 hour. The cylinders were then removed, and the units were taken to a growth chamber and held for 13 days at 28° C. and 50-70% relative humidity. Each test unit was then visually assessed for insect mortality.

For test [4], the system named is green peach aphid (Myzus persicae (Sulzer)). The test can be described thus: Test E: control of green peach aphid through contact and/or systemic means. The following applies: 144 h. As to the method:
as §1, §2
For evaluating control of green peach aphid (Myzus persicae (Sulzer)) through contact and/or systemic means, the test unit consisted of a small open container with a 12-15-day-old radish plant inside. This was pre-infested by placing on a leaf of the test plant 30-40 aphids on a piece of leaf excised from a culture plant (cut-leaf method). The aphids moved onto the test plant as the leaf piece desiccated. After pre-infestation, the soil of the test unit was covered with a layer of sand.
Test compounds were formulated and sprayed at 250, 50 and 10 ppm. After spraying of the formulated test compound, each test unit was allowed to dry for 1 hour and then a black, screened cap was placed on top. The test units were held for 6 days in a growth chamber at 19-21° C. and 50-70% relative humidity. Each test unit was then visually assessed for insect mortality.

Each structure is given as a SMILES string. Where only a bound is given, the exact number is not on record here.

`CS(=O)(=O)N1CC(NC(=O)c2ccc(C3=NOC(c4cc(Cl)c(F)c(Cl)c4)(C(F)(F)F)C3)c3ccncc23)C1` (stereo not shown) [Compound 21, 5-[5-(3,5-dichloro-4-fluorophenyl)-4,5-dihydro-5-(trifluoromethyl)-3-isoxazolyl]-N-[1-(methylsulfonyl)-3-azetidinyl]-8-isoquinolinecarboxamide]: the results for the mortality at 50 ppm in test [1], in test [2] and in test [3] were ≥ 80%, ≥ 80% and ≥ 50%, respectively.

Regarding `CC(C)(C)NC(=O)c1ccc(C2=NOC(c3cc(Cl)c(F)c(Cl)c3)(C(F)(F)F)C2)c2ccncc12` (stereo not shown) [Compound 2, 5-[5-(3,5-dichloro-4-fluorophenyl)-4,5-dihydro-5-(trifluoromethyl)-3-isoxazolyl]-N-(1,1-dimethylethyl)-8-isoquinolinecarboxamide], the mortality (usually the share of the test organisms that died) at 50 ppm in test [1] is ≥ 80%; in test [4], ≥ 80%; in test [2], ≥ 80%; in test [3] it was ≥ 50%. In addition, the mortality at 250 ppm is ≥ 80% in test [1], ≥ 80% in test [4], ≥ 80% in test [2] and ≥ 50% in test [3]. The mortality at 10 ppm in test [2] is ≥ 80%; in test [3] it was ≥ 50%.

Regarding `O=C(NC1CC1)c1ccc(C2=NOC(c3cc(Cl)cc(Cl)c3)(C(F)(F)F)C2)c2ccncc12` (stereo not shown) [Compound 70, N-cyclopropyl-5-[5-(3,5-dichlorophenyl)-4,5-dihydro-5-(trifluoromethyl)-3-isoxazolyl]-8-isoquinolinecarboxamide], the mortality at 50 ppm in test [1], in test [4] and in test [2] was ≥ 80% each time. Also, in test [2], the mortality at 10 ppm is ≥ 80%.

Turning to `O=C(NC1CC1)c1ccc(C2=NOC(c3cc(Cl)c(F)c(Cl)c3)(C(F)(F)F)C2)c2ccncc12` (stereo not shown) [Compound 23, N-cyclopropyl-5-[5-(3,5-dichloro-4-fluorophenyl)-4,5-dihydro-5-(trifluoromethyl)-3-isoxazolyl]-8-isoquinolinecarboxamide], the mortality at 50 ppm in test [1], in test [4] and in test [2] was ≥ 80% throughout. Moreover, the mortality at 10 ppm in test [4] and in test [2] was ≥ 80% in each case.

Regarding `O=C(NC1CC1)c1ccc(C2=NO[C@@](c3cc(Cl)c(F)c(Cl)c3)(C(F)(F)F)C2)c2ccncc12` [Compound 82, S—N-cyclopropyl-5-[5-(3,5-dichloro-4-fluorophenyl)-4,5-dihydro-5-(trifluoromethyl)-3-isoxazolyl]-8-isoquinolinecarboxamide], the mortality at 50 ppm in test [1], in test [4] and in test [2] was ≥ 80% in each case. Besides, the mortality at 10 ppm in test [4] and in test [2] was ≥ 80% each time.

`C[S+]([O-])CCNC(=O)c1ccc(C2=NOC(c3cc(Cl)c(F)c(Cl)c3)(C(F)(F)F)C2)c2ccncc12` (stereo not shown) [Compound 11]: the mortality at 10 ppm in test [1] is ≥ 80%. Moreover, the mortality at 50 ppm in test [1], in test [4] and in test [2] was ≥ 80% each time.

As for `C[C@H](CSCC(F)(F)F)NC(=O)c1ccc(C2=NOC(c3cc(Cl)c(F)c(Cl)c3)(C(F)(F)F)C2)c2ccncc12` (stereo partly shown) [Compound 62], the mortality at 50 ppm in test [1] was ≥ 80%; in test [2] it was ≥ 80%; in test [3], ≥ 50%.

Regarding `O=C(NC1CSC1)c1ccc(C2=NOC(c3cc(Cl)c(F)c(Cl)c3)(C(F)(F)F)C2)c2ccncc12` (stereo not shown) [Compound 43], the mortality at 50 ppm in test [1] and in test [2] was ≥ 80% each time.

`C[C@H](C[S+](C)[O-])NC(=O)c1ccc(C2=NOC(c3cc(Cl)c(F)c(Cl)c3)(C(F)(F)F)C2)c2ccncc12` (stereo partly shown) [Compound 14]: the mortality at 50 ppm in test [1] was ≥ 80%.

Source of the values: patent publication US20220041582A1, “ISOXAZOLINE COMPOUNDS FOR CONTROLLING INVERTEBRATE PESTS” (FMC Corporation, priority 2018, published 2022).
